Source: patent US8765819B2, “Composition comprising benzoic acid in combination with organic acid preservatives as active ingredients and the use thereof” (priority 2009, dated 2014)

Tested on: Candida strains (clinical isolates from patients suffering from Candidal vaginitis)
Test: Inhibition of Candida growth in broth pH 4.5 (turbidity after 72 hours)
Type: cell-based
Settings: for Candida growth, Strain 1: Strain 1, 37.5° C.; for Candida growth, Strain 2: Strain 2, 37.5° C.; for Candida growth, Strain 3: Strain 3, 37.5° C.; for Candida growth, Strain 4: Strain 4, 37.5° C.; for Candida growth, Strain 5: Strain 5, 37.5° C.; for Candida growth, Strain 6: Strain 6, 37.5° C.; for Candida growth, Strain 7: Strain 7, 37.5° C.; for Candida growth, Strain 8: Strain 8, 37.5° C.; for Candida growth, Strain 9: Strain 9, 37.5° C.; for Candida growth, Strain 10: Strain 10, 37.5° C.; for Candida growth, Strain 11: Strain 11, 37.5° C.; for number of the 11 Candida strains that grew: of 11 strains
Text: 1. […] Unless otherwise illustrated, the solutions in the experiments are all aqueous solutions. 2. Experimental Method: (1) Experimental Materials:
a) Experimental strains: 11 Candida strains, all of which were screened from the clinical isolates from patients suffering from Candidal vaginitis, and were capable of growing in broth comprising 0.025% (w/v) sodium benzoate.
b) Broth: 1% yeast extract powder, 9% sucrose, 0.025% Manganese sulfate (MnSO4.4H2O), 0.058% Magnesium sulphate (MgSO4.7H2O), and 0.9% lactic acid, wherein the pH value was adjusted to 4.5 and the broth was sterilized for use;
(2) Experimental Grouping:
The requirements for aseptic technique were strictly followed to prepare the following groups of sterile test tubes: • a) sodium benzoate group: a test tube containing 5 ml broth, to which 0.025% (w/v) sodium benzoate was added; • b) sodium benzoate+sodium dehydroacetate group: 6 test tubes each containing 5 ml broth, wherein 0.0025% (w/v), 0.005% (w/v), and 0.01% (w/v) sodium dehydroacetate were added to three tubes, respectively; 0.025% (w/v) sodium benzoate was added to each of the rest 3 tubes, and then 0.0025% (w/v), 0.005% (w/v), 0.01% (w/v) sodium dehydroacetate were added to them, respectively; • c) sodium benzoate+sodium propionate group: 6 test tubes each containing 5 ml broth, wherein 0.0625% (w/v), 0.125% (w/v), and 0.25% (w/v) sodium propionate were added to three tubes, respectively; 0.025% (w/v) sodium benzoate was added to each of the rest 3 tubes, and then 0.0625% (w/v), 0.125% (w/v), and 0.25% (w/v) sodium propionate were added to them, respectively; • d) sodium benzoate+potassium sorbate group: 6 test tubes each containing 5 ml broth, wherein 0.00625% (w/v), 0.0125% (w/v), and 0.025% (w/v) potassium sorbate were added to 3 tubes, respectively; 0.025% (w/v) sodium benzoate was added to each of the rest 3 tubes, and then 0.00625% (w/v), 0.0125% (w/v), and 0.025% (w/v) potassium sorbate were added to them, respectively; • e) sodium benzoate+Ethylparaben: 6 test tubes each containing 5 ml broth, wherein 0.0125% (w/v), 0.025% (w/v), and 0.05% (w/v) Ethylparaben were added to 3 tubes, respectively; 0.025% (w/v) sodium benzoate was added to each of the rest 3 tubes, and then 0.0125% (w/v), 0.025% (w/v), and 0.05% (w/v) Ethylparaben were added to them, respectively; • f) Positive control: a broth-containing test tube with Candida but without sodium benzoate, sodium dehydroacetate, sodium propionate, sorbic acid, or Ethylparaben. • g) Negative control: a broth-containing test tube without Candida, sodium benzoate, sodium dehydroacetate, sodium propionate, sorbic acid, or Ethylparaben; (3) Experimental Methods:
The Candidal suspensions were prepared under stringent aseptic manipulation techniques. The colonies of various Candidal strains were diluted with saline, respectively. The turbidity was adjusted with a turbiditor to 0.5M (about 10^8CFU/ml), and then 1 ml 0.5M bacterial solution was added to 9 ml broth and was 10 times diluted, so that each Candidal suspension comprised Candidal organisms at 10^7CFU/ml.
Under stringent aseptic manipulation techniques, 100 μl bacterial solution thus prepared was added to each of the aforesaid a˜f test tubes and the positive control tube, and no bacterial solution was added to the negative control tube g.
These tubes were incubated in a biochemical incubator at 37.5° C. for 72 hours. The turbidity of the test tubes were observed and recorded.

CC(=O)c1c([O-])cc(C)oc1=O.[Na+] [0.01% sodium dehydroacetate, sodium dehydroacetate]
Candida growth, Strain 1: + | Candida growth, Strain 2: − | Candida growth, Strain 3: + | Candida growth, Strain 4: + | Candida growth, Strain 5: − | Candida growth, Strain 6: + | Candida growth, Strain 7: + | Candida growth, Strain 8: + | Candida growth, Strain 9: − | Candida growth, Strain 10: + | Candida growth, Strain 11: − | number of the 11 Candida strains that grew (listed as 0.01% (w/v) sodium dehydroacetate): 7

CCOC(=O)c1ccc(O)cc1 [0.05% Ethylparaben, Ethylparaben]
Candida growth, Strain 1: − | Candida growth, Strain 2: + | Candida growth, Strain 3: + | Candida growth, Strain 4: + | Candida growth, Strain 5: − | Candida growth, Strain 6: + | Candida growth, Strain 7: + | Candida growth, Strain 8: + | Candida growth, Strain 9: − | Candida growth, Strain 10: + | Candida growth, Strain 11: + | number of the 11 Candida strains that grew (listed as 0.05% (w/v) Ethylparaben): 8

CC(=O)c1c([O-])cc(C)oc1=O.[Na+] [0.005% sodium dehydroacetate, sodium dehydroacetate]
Candida growth, Strain 1: + | Candida growth, Strain 2: + | Candida growth, Strain 3: + | Candida growth, Strain 4: + | Candida growth, Strain 5: − | Candida growth, Strain 6: + | Candida growth, Strain 7: + | Candida growth, Strain 8: + | Candida growth, Strain 9: − | Candida growth, Strain 10: + | Candida growth, Strain 11: +

CCOC(=O)c1ccc(O)cc1 [0.025% Ethylparaben, Ethylparaben]
Candida growth, Strain 1: + | Candida growth, Strain 2: + | Candida growth, Strain 3: + | Candida growth, Strain 4: + | Candida growth, Strain 5: + | Candida growth, Strain 6: + | Candida growth, Strain 7: + | Candida growth, Strain 8: + | Candida growth, Strain 9: + | Candida growth, Strain 10: + | Candida growth, Strain 11: +

C/C=C/C=C/C(=O)[O-].[K+] [0.025% potassium sorbate, potassium sorbate]
Candida growth, Strain 1: + | Candida growth, Strain 2: − | Candida growth, Strain 3: + | Candida growth, Strain 4: + | Candida growth, Strain 5: + | Candida growth, Strain 6: + | Candida growth, Strain 7: + | Candida growth, Strain 8: + | Candida growth, Strain 9: − | Candida growth, Strain 10: + | Candida growth, Strain 11: + | number of the 11 Candida strains that grew (listed as 0.025% (w/v) potassium sorbate): 9

O=C([O-])c1ccccc1.[Na+] [0.025% sodium benzoate, sodium benzoate]
Candida growth, Strain 1: + | Candida growth, Strain 2: + | Candida growth, Strain 3: + | Candida growth, Strain 4: + | Candida growth, Strain 5: + | Candida growth, Strain 6: + | Candida growth, Strain 7: + | Candida growth, Strain 8: + | Candida growth, Strain 9: + | Candida growth, Strain 10: + | Candida growth, Strain 11: + | number of the 11 Candida strains that grew: 11/11

CC(=O)c1c([O-])cc(C)oc1=O.[Na+] [0.0025% sodium dehydroacetate, sodium dehydroacetate]
Candida growth, Strain 1: + | Candida growth, Strain 2: + | Candida growth, Strain 3: + | Candida growth, Strain 4: + | Candida growth, Strain 5: − | Candida growth, Strain 6: + | Candida growth, Strain 7: + | Candida growth, Strain 8: + | Candida growth, Strain 9: + | Candida growth, Strain 10: + | Candida growth, Strain 11: + | number of the 11 Candida strains that grew (listed as 0.0025% (w/v) sodium dehydroacetate): 10

CCC(=O)[O-].[Na+] [0.25% sodium propionate, sodium propionate]
Candida growth, Strain 1: − | Candida growth, Strain 2: − | Candida growth, Strain 3: + | Candida growth, Strain 4: + | Candida growth, Strain 5: − | Candida growth, Strain 6: − | Candida growth, Strain 7: + | Candida growth, Strain 8: + | Candida growth, Strain 9: − | Candida growth, Strain 10: + | Candida growth, Strain 11: − | number of the 11 Candida strains that grew (listed as 0.25% (w/v) sodium propionate): 5
